Laboratory results as given in patent US9255100B2 (BAYER INTELLECTUAL PROPERTY GMBH, priority 2010, dated 2016).

The molecules below were run against T1, N-terminally GST-tagged human full length recombinant Mps-1 kinase (Homo sapiens, UniProt P33981) (assay: Mps-1 kinase assay (TR-FRET)). Conditions: Mps1 IC50 [nM], 10 μM ATP, 1 μM peptide substrate, 60 min at 22° C.
T1 construct: N-terminally GST-tagged human full length recombinant Mps-1 kinase; purchased Invitrogen, Karslruhe, Germany PV4071
T1 sequence (P33981 1-857): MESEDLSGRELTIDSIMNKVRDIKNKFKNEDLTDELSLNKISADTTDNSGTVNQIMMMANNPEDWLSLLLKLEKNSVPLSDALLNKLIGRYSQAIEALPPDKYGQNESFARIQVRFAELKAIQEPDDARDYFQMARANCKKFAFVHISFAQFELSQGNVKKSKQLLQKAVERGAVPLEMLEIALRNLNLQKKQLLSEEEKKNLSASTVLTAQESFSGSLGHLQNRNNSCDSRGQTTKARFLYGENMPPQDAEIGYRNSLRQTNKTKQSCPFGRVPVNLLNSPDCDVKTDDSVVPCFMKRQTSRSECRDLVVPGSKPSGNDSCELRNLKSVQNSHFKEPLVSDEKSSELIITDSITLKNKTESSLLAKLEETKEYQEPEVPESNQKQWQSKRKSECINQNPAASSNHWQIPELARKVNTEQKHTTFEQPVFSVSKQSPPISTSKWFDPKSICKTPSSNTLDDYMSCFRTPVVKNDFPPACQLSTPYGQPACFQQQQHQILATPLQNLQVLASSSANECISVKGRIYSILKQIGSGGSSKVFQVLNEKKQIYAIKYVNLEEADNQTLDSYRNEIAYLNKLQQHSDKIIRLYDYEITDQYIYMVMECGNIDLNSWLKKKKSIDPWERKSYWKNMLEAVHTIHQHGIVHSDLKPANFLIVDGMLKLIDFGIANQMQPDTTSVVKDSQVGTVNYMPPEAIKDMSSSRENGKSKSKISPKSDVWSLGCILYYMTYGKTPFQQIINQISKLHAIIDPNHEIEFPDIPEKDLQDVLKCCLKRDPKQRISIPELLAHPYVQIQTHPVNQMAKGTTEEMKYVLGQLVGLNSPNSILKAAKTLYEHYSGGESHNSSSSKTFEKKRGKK
Assay type: biochemical
Summary of the method: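 Next, Eu-labelled anti-phospho(Ser/Thr) antibody and SA-XLent bind for 1 h at 22° C. Finally, energy transfer quantifies phosphorylated product.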

Structure (SMILES)	IC50 [nM]
COc1cc(F)ccc1Nc1cc(NCC(C)(C)O)c2ncc(-c3ccc(C(=O)NC4CC4)c(C)c3)n2n1 [Example 432, N-cyclopropyl-4-{6-[(4-fluoro-2-methoxyphenyl)amino]-8-[(2-hydroxy-2-methylpropyl)amino]imidazo[1,2-b]pyridazin-3-yl}-2-methylbenzamide]	4.6
Cc1cc(-c2cnc3c(NCCC(F)(F)F)cc(Nc4cccc(C(C)C)c4)nn23)ccc1C(=O)NC1CC1 [Example 433, N-cyclopropyl-2-methyl-4-(6-{[3-(propan-2-yl)phenyl]amino}-8-[(3,3,3-trifluoropropyl)amino]imidazo[1,2-b]pyridazin-3-yl)benzamide]	0.6
Cc1cc(-c2cnc3c(NCC(C)(C)O)cc(Nc4ccccc4CO)nn23)ccc1C(=O)NC1CC1 [Example 434, N-cyclopropyl-4-(6-{[2-(hydroxymethyl)phenyl]amino}-8-[(2-hydroxy-2-methylpropyl)amino]imidazo[1,2-b]pyridazin-3-yl)-2-methylbenzamide]	1.3
Cc1cc(-c2cnc3c(NCC(C)(C)O)cc(Nc4ccc(CCN)cc4)nn23)ccc1C(=O)NC1CC1 [Example 435, 4-(6-{[4-(2-aminoethyl)phenyl]amino}-8-[(2-hydroxy-2-methylpropyl)amino]imidazo[1,2-b]pyridazin-3-yl)-N-cyclopropyl-2-methylbenzamide]	1.6
Cc1cc(-c2cnc3c(NCCC(F)(F)F)cc(Oc4ccc(F)nc4)nn23)ccc1C(=O)NC1CC1 [Example 436, N-cyclopropyl-4-{6-[(6-fluoropyridin-3-yl)oxy]-8-[(3,3,3-trifluoropropyl)amino]imidazo[1,2-b]pyridazin-3-yl}-2-methylbenzamide]	0.1
Cc1cc(-c2cnc3c(NCCC(F)(F)F)cc(Nc4cccnc4)nn23)ccc1C(=O)NC1CC1 [Example 439, N-cyclopropyl-2-methyl-4-{6-(pyridin-3-ylamino)-8-[(3,3,3-trifluoropropyl)amino]imidazo[1,2-b]pyridazin-3-yl}benzamide]	0.2
Cc1cc(-c2cnc3c(NCCC(F)(F)F)cc(Nc4ccc(F)nc4)nn23)ccc1C(=O)NC1CC1 [Example 440, N-cyclopropyl-4-{6-[(6-fluoropyridin-3-yl)-amino]-8-[(3,3,3-trifluoropropyl)amino]imidazo[1,2-b]pyridazin-3-yl}-2-methylbenzamide]	0.1
Cc1cc(-c2cnc3c(NCCC(F)(F)F)cc(Oc4cccc(C(C)C)c4O)nn23)ccc1C(=O)NC1CC1 [Example 441, N-cyclopropyl-4-{6-[2-hydroxy-3-(propan-2-yl)phenoxy]-8-[(3,3,3-trifluoropropyl)amino]imidazo[1,2-b]pyridazin-3-yl}-2-methylbenzamide]	0.5
Cc1cc(-c2cnc3c(NCCC(F)(F)F)cc(Nc4ccc(F)c(O)c4)nn23)ccc1C(=O)NC1CC1 [Example 442, N-cyclopropyl-4-{6-[(4-fluoro-3-hydroxyphenyl)amino]-8-[(3,3,3-trifluoropropyl)amino]imidazo[1,2-b]pyridazin-3-yl}-2-methylbenzamide]	0.1
Cc1ccc(O)cc1Nc1cc(NCCC(F)(F)F)c2ncc(-c3ccc(C(=O)NC4CC4)c(C)c3)n2n1 [Example 443, N-cyclopropyl-4-{6-[(5-hydroxy-2-methylphenyl)amino]-8-[(3,3,3-trifluoropropyl)amino]imidazo[1,2-b]pyridazin-3-yl}-2-methylbenzamide]	0.1
Cc1cc(-c2cnc3c(NCC(C)(C)O)cc(Nc4cccc(O)c4)nn23)ccc1C(=O)NC1CC1 [Example 446, N-cyclopropyl-4-{8-[(2-hydroxy-2-methylpropyl)amino]-6-[(3-hydroxyphenyl)amino]imidazo[1,2-b]pyridazin-3-yl}-2-methylbenzamide]	0.4
Cc1cc(-c2cnc3c(NCCCC(F)(F)F)cc(Nc4ccc(F)c(F)c4)nn23)ccc1C(=O)NC1CC1 [Example 447, N-cyclopropyl-4-{6-[(3,4-difluorophenyl)amino]-8-[(4,4,4-trifluorobutyl)amino]imidazo[1,2-b]pyridazin-3-yl}-2-methylbenzamide]	1.1
Cc1ccc(F)cc1Nc1cc(NCCCC(F)(F)F)c2ncc(-c3ccc(C(=O)NC4CC4)c(C)c3)n2n1 [Example 448, N-cyclopropyl-4-{6-[(5-fluoro-2-methylphenyl)amino]-8-[(4,4,4-trifluorobutyl)amino]imidazo[1,2-b]pyridazin-3-yl}-2-methylbenzamide]	0.6
Cc1cc(F)cc(Sc2cc(NCCCC(F)(F)F)c3ncc(-c4ccc(C(=O)NC5CC5)c(C)c4)n3n2)c1 [Example 449, N-cyclopropyl-4-{6-[(3-fluoro-5-methylphenyl)sulfanyl]-8-[(4,4,4-trifluorobutyl)amino]imidazo[1,2-b]pyridazin-3-yl}-2-methylbenzamide]	0.6
Cc1cc(-c2cnc3c(NCCCC(F)(F)F)cc(Nc4cccc(F)c4F)nn23)ccc1C(=O)NC1CC1 [Example 450, N-cyclopropyl-4-{6-[(2,3-difluorophenyl)amino]-8-[(4,4,4-trifluorobutyl)amino]imidazo[1,2-b]pyridazin-3-yl}-2-methylbenzamide]	0.3
Cc1ccc(Cl)cc1Nc1cc(NCCCC(F)(F)F)c2ncc(-c3ccc(C(=O)NC4CC4)c(C)c3)n2n1 [Example 451, 4-{6-[(5-chloro-2-methylphenyl)amino]-8-[(4,4,4-trifluorobutyl)amino]imidazo[1,2-b]pyridazin-3-yl}-N-cyclopropyl-2-methylbenzamide]	1.3
Cc1cc(F)cc(Oc2cc(NCCCC(F)(F)F)c3ncc(-c4ccc(C(=O)NC5CC5)c(C)c4)n3n2)c1 [Example 452, N-cyclopropyl-4-{6-(3-fluoro-5-methylphenoxy)-8-[(4,4,4-trifluorobutyl)amino]imidazo[1,2-b]pyridazin-3-yl}-2-methylbenzamide]	0.8
Cc1cc(-c2cnc3c(NCCC(F)(F)F)cc(Nc4cccc(O)c4C)nn23)ccc1C(=O)NC1CC1 [Example 454, N-cyclopropyl-4-{6-[(3-hydroxy-2-methylphenyl)amino]-8-[(3,3,3-trifluoropropyl)amino]imidazo[1,2-b]pyridazin-3-yl}-2-methylbenzamide]	0.1
COc1cc(F)ccc1Nc1cc(NCCCC(F)(F)F)c2ncc(-c3ccc(C(=O)NC4CC4)c(C)c3)n2n1 [Example 457, N-cyclopropyl-4-{6-[(4-fluoro-2-methoxyphenyl)amino]-8-[(4,4,4-trifluorobutyl)amino]imidazo[1,2-b]pyridazin-3-yl}-2-methylbenzamide]	5.4
CSc1cccc(Oc2cc(NCC(C)(C)O)c3ncc(-c4ccc(C(=O)NC5CC5)c(C)c4)n3n2)c1F [Example 458, N-cyclopropyl-4-{6-[2-fluoro-3-(methylsulfanyl)phenoxy]-8-[(2-hydroxy-2-methylpropyl)amino]imidazo[1,2-b]pyridazin-3-yl}-2-methylbenzamide]	1.1
COC1(NC(=O)c2ccc(-c3cnc4c(NCCC(F)(F)F)cc(Oc5cccc(F)c5)nn34)cc2C)CC1 [Example 460, 4-{6-(3-fluorophenoxy)-8-[(3,3,3-trifluoropropyl)amino]imidazo[1,2-b]pyridazin-3-yl}-N-(1-methoxycyclopropyl)-2-methylbenzamide]	0.3
Cc1cc(-c2cnc3c(NCCC(F)(F)F)cc(Oc4cncc(F)c4)nn23)ccc1C(=O)NC1CC1 [Example 464, N-cyclopropyl-4-{6-[(5-fluoropyridin-3-yl)oxy]-8-[(3,3,3-trifluoropropyl)amino]imidazo[1,2-b]pyridazin-3-yl}-2-methylbenzamide]	0.1
Cc1cc(-c2cnc3c(NCCC(F)(F)F)cc(Oc4cccc5c4NCCC5)nn23)ccc1C(=O)NC1CC1 [Example 466, N-cyclopropyl-2-methyl-4-{6-(1,2,3,4-tetrahydro-quinolin-8-yloxy)-8-[(3,3,3-trifluoropropyl)amino]imidazo[1,2-b]pyridazin-3-yl} benzamide]	4.8
Cc1cc(-c2cnc3c(NCCC(F)(F)F)cc(N4CCCc5cccc(O)c54)nn23)ccc1C(=O)NC1CC1 [Example 467, N-cyclopropyl-4-{6-(8-hydroxy-3,4-dihydro-quinolin-1(2H)-yl)-8-[(3,3,3-trifluoropropyl)amino]imidazo[1,2-b]pyridazin-3-yl}-2-methyl-benzamide]	1.6
Cc1cc(-c2cnc3c(NCCC(F)(F)F)cc(Oc4cccc5ccc(=O)[nH]c45)nn23)ccc1C(=O)NC1CC1 [Example 468, N-cyclopropyl-2-methyl-4-{6-[(2-oxo-1,2-dihydro-quinolin-8-yl)oxy]-8-[(3,3,3-trifluoropropyl)amino]imidazo[1,2-b]pyridazin-3-yl} benzamide]	7.5
